11 molecules from patent US20250215016A1, “ISOXAZOLE-HETEROCYCLIC DERIVATIVE, PHARMACEUTICAL COMPOSITION AND USE” (SHANGHAI SIMR BIOTECHNOLOGY CO., LTD, priority 2022, published 2025) can be followed below.

For the experiment, the target named is α5-GABAA receptor (Homo sapiens (Human), UniProt P18507+P31644). Briefly: Whole-cell patch clamp electrophysiology, inverse regulation activity in α5β3γ2-HEK293 cells. It counts as cell-based. Particulars: compound 100 nM; GABA 0.05-0.06 μM (about EC7-8); clamped at −60 mV; read-out: Inverse regulation efficiency to α5-GABAA receptor. Summed up:
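HEK293 cells expressing α5β3γ2 recorded whole-cell at −60 mV holding potential, GABA 0.05-0.06 μM (about EC7-8) applied, then compound at 100 nM final with GABA. pH 7.4 extracellular, CsCl-based pipette solution. Inverse regulation efficiency = (Itreatment−Igaba)/(Igaba−Iprebaseline)×100%.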

Molecules are shown by their SMILES.

α5-GABAA receptor, sequence (P31644 32-462): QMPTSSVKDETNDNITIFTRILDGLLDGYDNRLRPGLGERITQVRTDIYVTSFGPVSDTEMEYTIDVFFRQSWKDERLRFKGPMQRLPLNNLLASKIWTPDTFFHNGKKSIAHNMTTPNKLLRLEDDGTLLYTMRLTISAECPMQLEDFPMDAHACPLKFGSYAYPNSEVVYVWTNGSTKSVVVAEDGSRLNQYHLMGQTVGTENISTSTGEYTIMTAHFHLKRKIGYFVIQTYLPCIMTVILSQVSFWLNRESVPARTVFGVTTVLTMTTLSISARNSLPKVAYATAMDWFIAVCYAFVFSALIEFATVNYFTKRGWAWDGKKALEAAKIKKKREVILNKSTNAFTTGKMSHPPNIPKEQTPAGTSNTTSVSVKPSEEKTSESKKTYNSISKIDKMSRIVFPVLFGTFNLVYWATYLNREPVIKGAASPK
α5-GABAA receptor, sequence (P28472 26-473 partner): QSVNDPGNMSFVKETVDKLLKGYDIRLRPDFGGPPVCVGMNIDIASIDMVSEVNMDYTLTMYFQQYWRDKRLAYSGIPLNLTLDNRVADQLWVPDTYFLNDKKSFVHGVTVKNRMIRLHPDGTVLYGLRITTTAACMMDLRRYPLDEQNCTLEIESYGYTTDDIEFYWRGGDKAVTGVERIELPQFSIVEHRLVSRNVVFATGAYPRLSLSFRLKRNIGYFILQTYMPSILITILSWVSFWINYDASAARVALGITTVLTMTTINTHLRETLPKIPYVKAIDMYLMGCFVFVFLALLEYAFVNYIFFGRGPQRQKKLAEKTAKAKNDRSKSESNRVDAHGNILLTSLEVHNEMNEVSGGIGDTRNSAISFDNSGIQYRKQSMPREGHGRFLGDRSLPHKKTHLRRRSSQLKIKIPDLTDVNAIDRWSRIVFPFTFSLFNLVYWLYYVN
α5-GABAA receptor, sequence (P18507 other isoform, or with tags, fused parts or gaps): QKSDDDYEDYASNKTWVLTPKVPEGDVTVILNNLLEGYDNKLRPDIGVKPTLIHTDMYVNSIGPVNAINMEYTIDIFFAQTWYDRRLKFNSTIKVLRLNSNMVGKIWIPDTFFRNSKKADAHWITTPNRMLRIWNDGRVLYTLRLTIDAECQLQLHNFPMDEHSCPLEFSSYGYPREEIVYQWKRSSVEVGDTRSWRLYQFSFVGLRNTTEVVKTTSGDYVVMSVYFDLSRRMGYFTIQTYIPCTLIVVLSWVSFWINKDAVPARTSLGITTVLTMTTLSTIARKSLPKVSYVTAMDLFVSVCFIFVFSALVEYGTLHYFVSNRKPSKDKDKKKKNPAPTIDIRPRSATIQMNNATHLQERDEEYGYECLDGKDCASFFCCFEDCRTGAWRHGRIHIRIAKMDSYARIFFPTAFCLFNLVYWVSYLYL

Turning to `Cc1onc(-c2ccc(F)cc2)c1COc1ccc(-c2nnc3n2CCS(=O)(=O)C3)cn1` [Compound 7, 3-(6-((3-(4-fluorophenyl)-5-methylisoxazol-4-yl)methoxy)pyridin-3-yl)-5,6-dihydro-8H-[1,2,4]triazolo[3,4-c][1,4]thiazine 7,7-dioxide], the inhibition at 0.1 µM was determined as 37%.

For the molecule `Cc1onc(-c2ccc(F)cc2)c1COc1ccc(N2CCN3CCNC(=O)C3C2)nn1` (centres unmarked) [Compound 10, 8-(6-((3-(4-fluorophenyl)-5-methylisoxazol-4-yl)methoxy)pyridazin-3-yl) hexahydro-2H-pyrazino[1,2-a]pyrazin-1 (6H)-one], the inhibition at 0.1 µM was 66%.

Consider `Cc1onc(-c2ccc(F)cc2)c1COc1ccc(-c2nnc3n2CCOC3)cn1` [Compound 17, 3-(6-((3-(4-fluorophenyl)-5-methylisoxazol-4-yl)methoxy)pyridin-3-yl)-5,6-dihydro-8H-[1,2,4]triazolo[3,4-c][1,4]oxazine], for which the inhibition at 0.1 µM turned out to be 49%.

`Cc1onc(-c2ccc(F)cc2)c1COc1ccc(-c2nnc3n2CCOC3)nn1` [Compound 18, 3-(6-((3-(4-fluorophenyl)-5-methylisoxazol-4-yl)methoxy)pyridazin-3-yl)-5,6-dihydro-8H-[1,2,4]triazolo[3,4-c][1,4]oxazine]: the inhibition at 0.1 µM amounted to 57%.

Consider `Cc1onc(-c2ccc(F)cc2)c1COc1cnc(-c2nnc3n2CCOC3)cn1` [Compound 19, 3-(5-((3-(4-fluorophenyl)-5-methylisoxazol-4-yl)methoxy)pyrazin-2-yl)-5,6-dihydro-8H-[1,2,4]triazolo[3,4-c][1,4]oxazine], for which the inhibition at 0.1 µM worked out at 54%.

`Cc1onc(-c2ccc(F)cc2)c1COc1cnc(-c2nnc3n2CCC3)cn1` [Compound 23, 4-(((5-(6,7-dihydro-5H-pyrrolo[2,1-c][1,2,4]triazol-3-yl)pyrazin-2-yl)oxy)methyl)-3-(4-fluorophenyl)-5-methylisoxazole]: the inhibition at 0.1 µM was 45%.

For `Cc1onc(-c2ccc(F)cc2)c1COc1cnc(-c2nnc3n2CCCOC3)cn1` [Compound 24, 3-(5-((3-(4-fluorophenyl)-5-methylisoxazol-4-yl)methoxy)pyrazin-2-yl)-6,7-dihydro-5H,9H-[1,2,4]triazolo[3,4-c][1,4]oxazepane], the inhibition at 0.1 µM worked out at 44%.

On to `Cc1onc(-c2ccc(F)cc2)c1COc1cnc(-c2nnc3n2CCOCC3)cn1` [Compound 33, 3-(5-((3-(4-fluorophenyl)-5-methylisoxazol-4-yl)methoxy)pyrazin-2-yl)-5,6,8,9-tetrahydro-[1,2,4]triazolo[4,3-d][1,4]oxazepane], for which the inhibition at 0.1 µM was found to be 48%.

For `Cc1onc(-c2ccc(F)cc2)c1COc1ccc(N2CCn3ccnc3C2=O)nn1` [Compound 37, 7-(6-((3-(4-fluorophenyl)-5-methylisoxazol-4-yl)methoxy)pyridazin-3-yl)-6,7-dihydroimidazo[1,2-a]pyrazin-8(5H)-one], the inhibition at 0.1 µM came out at 54%.

With `Cc1onc(-c2ccc(F)cc2)c1COc1ccc(-c2cc3n(c(=O)n2)C[C@]24CO[C@H](CN32)C4)cn1` [Compound 38], the inhibition at 0.1 µM turned out to be 56%.

For `Cc1onc(-c2ccc(F)cc2)c1COc1ccc(-c2cc3n(c(=O)n2)CCN3C)cn1` [Compound 41, 7-(6-((3-(4-fluorophenyl)-5-methylisoxazol-4-yl)methoxy)pyridin-3-yl)-1-methyl-2,3-dihydroimidazo[1,2-c]pyrimidin-5(1H)-one], the inhibition at 0.1 µM amounted to 47%.
